# Measured values published in patent US9200001B2, “Triazolyl PDE10 inhibitors” (Merck Sharp & Dohme Corp., priority 2011, dated 2015).
# pKi: −log10 of the molar value.
# Molecular target: human PDE10A2 (Homo sapiens (Human), UniProt Q9Y233)
# Assay: PDE10 fluorescence polarization (IMAP FP) inhibition assay
# Type: biochemical
# Details: FAM-labeled cAMP 50 nM, room temperature, read-out: PDE10a Ki
# Experimental: The activity of the compounds in accordance with the present invention as PDE10 inhibitors may be readily determined without undue experimentation using a fluorescence polarization (FP) methodology that is well known in the art (Huang, W., et al., J. Biomol Screen, 2002, 7: 215).
# In a typical experiment the PDE10 inhibitory activity of the compounds of the present invention was determined in accordance with the following experimental method. PDE10A2 was amplified from human fetal brain cDNA (Clontech, Mountain View, Calif.) using a forward primer corresponding to nucleotides 56-77 of human PDE10A2 (Accession No. AF127480, Genbank Identifier 4894716), containing a Kozak consensus sequence, and a reverse primer corresponding to nucleotides 2406-2413 of human PDE10A2 (Accession No. AF127480, Genbank Identifier 4894716). Amplification with Easy-A polymerase (Stratagene, La Jolla, Calif.) was 95° C. for 2 minutes followed by thirty three cycles of 95° C. for 40 seconds, 55° C. for 30 seconds, and 72° C. for 2 minutes 48 seconds. Final extension was 72° C. for 7 minutes. The PCR product was TA cloned into pcDNA3.2-TOPO (Invitrogen, Carlsbad, Calif.) according to standard protocol. AD293 cells with 70-80% confluency were transiently transfected with human PDE10A2/pcDNA3.2-TOPO using Lipofectamine 2000 according to manufacturer specifications (Invitrogen, Carlsbad, Calif.). Cells were harvested 48 hours post-transfection and lysed by sonication (setting 3, 10×5 sec pulses) in a buffer containing 20 mM HEPES, 1 mM EDTA and protease inhibitor cocktail (Roche). Lysate was collected by centrifugation at 75,000×g for 20 minutes. Supernatant containing the cytoplasmic fraction was used for evaluation of PDE10A2 activity. The fluorescence polarization assay for cyclic nucleotide phosphodiesterases was performed using an IMAP® FP kit supplied by Molecular Devices, Sunnyvale, Calif. (product # R8139). IMAP® technology has been applied previously to phosphodiesterase assays (Huang, W., et al., J. Biomol Screen, 2002, 7: 215). Assays were performed at room temperature in 384-well microtiter plates with an incubation volume of 20.2 μL. Solutions of test compounds were prepared in DMSO and serially diluted with DMSO to yield 8 μL of each of 10 solutions differing by 3-fold in concentration, at 32 serial dilutions per plate. 100% inhibition is determined using a known PDE10 inhibitor, which can be any compound that is present at 5,000 times its Ki value in the assay described as follows, such as papaverine (see Siuciak, et al. Neuropharmacology (2006) 51:386-396; Becker, et al. Behav Brain Res (2008) 186(2):155-60; Threlfell, et al., J Pharmacol Exp Ther (2009) 328(3):785-795), 2-{4-[pyridin-4-yl-1-(2,2,2-trifluoroethyl)-1H-pyrazol-3-yl]phenoxymethyl}quinoline succinic acid or 2-[4-(1-methyl-4-pyridin-4-yl-1H-pyrazol-3-yl)-phenoxymethyl]quinoline succinic acid (see Schmidt, et al. J Pharmacol Exp Ther (2008) 325:681-690; Threlfall, et al., J Pharmacol Exp Ther (2009) 328(3): 785-795). 0% of inhibition is determined by using DMSO (1% final concentrations).
# A Labcyte Echo 555 (Labcyte, Sunnyvale, Calif.) is used to dispense 200 nL from each well of the titration plate to the 384 well assay plate. A solution of enzyme (1/1600 dilution from aliquots; sufficient to produce 20% substrate conversion) and a separate solution of FAM-labeled cAMP PDE from Molecular Devices (product # R7506), at a final concentration of 50 nM are made in the assay buffer (10 mM Tris HCl, pH 7.2, 10 mM MgCl2, 0.05% NaN3 0.01% Tween-20, and 1 mM DTT). The enzyme and the substrate are then added to the assay plates in two consecutive additions of 10 μL, and then shaken to mix. The reaction is allowed to proceed at room temperature for 30 minutes. A binding solution is then made from the kit components, comprised of 80% Solution A, 20% Solution B and binding reagent at a volume of 1600 the total binding solution. […]
# Chain of human PDE10A2 (Q9Y233 267-1055): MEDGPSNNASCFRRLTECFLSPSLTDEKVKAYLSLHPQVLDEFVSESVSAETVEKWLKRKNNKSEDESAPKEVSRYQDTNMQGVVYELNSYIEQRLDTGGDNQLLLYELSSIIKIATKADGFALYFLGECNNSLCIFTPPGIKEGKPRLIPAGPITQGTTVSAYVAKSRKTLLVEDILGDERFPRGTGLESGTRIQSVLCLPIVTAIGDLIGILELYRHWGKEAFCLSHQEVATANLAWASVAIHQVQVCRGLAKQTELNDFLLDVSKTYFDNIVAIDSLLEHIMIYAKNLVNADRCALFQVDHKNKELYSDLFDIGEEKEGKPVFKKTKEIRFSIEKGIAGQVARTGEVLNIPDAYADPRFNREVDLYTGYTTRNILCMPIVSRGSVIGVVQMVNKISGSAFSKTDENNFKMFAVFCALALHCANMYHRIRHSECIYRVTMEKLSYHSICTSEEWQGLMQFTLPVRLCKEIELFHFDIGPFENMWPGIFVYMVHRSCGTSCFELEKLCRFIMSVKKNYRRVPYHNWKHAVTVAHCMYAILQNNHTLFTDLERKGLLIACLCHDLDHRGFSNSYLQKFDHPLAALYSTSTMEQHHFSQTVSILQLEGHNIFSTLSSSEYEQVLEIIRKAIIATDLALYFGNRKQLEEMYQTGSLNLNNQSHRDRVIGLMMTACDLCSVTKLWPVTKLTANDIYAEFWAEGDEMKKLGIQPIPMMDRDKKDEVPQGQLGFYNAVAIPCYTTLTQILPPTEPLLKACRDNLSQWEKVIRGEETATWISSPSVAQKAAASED
row,pKi,SMILES
1,8.77,"Cc1nc(C2CC2c2nc3ccccc3n2C)cc(-n2nc(C)nc2C(C)C)n1 (centres unmarked) [Cpd 56, 2-(2-(6-(5-isopropyl-3-methyl-1H-1,2,4-triazol-1-yl)-2-methylpyrimidin-4-yl)cyclopropyl)-1-methyl-1H-benzo[d]imidazole]"
2,7.89,"Cc1nc([C@H]2C[C@@H]2c2nc3ccccc3n2C)cc(-n2nc(C)nc2-c2cccnc2)n1 (stereo in doubt) [Cpd 81, 1-methyl-2-{2-[2-methyl-6-(3-methyl-5-pyridin-3-yl-1H-1,2,4-triazol-1-yl)pyrimidin-4-yl]cyclopropyl}-1H-benzimidazole]"
3,9.43,"CSc1nc([C@@H]2C[C@H]2c2nc3ccccc3n2C)cc(-n2nc(C)nc2C)n1 [Cpd 69, 2-{(1R,2R)-2-[6-(3,5-dimethyl-1H-1,2,4-triazol-1-yl)-2-(methylsulfanyl)pyrimidin-4-yl]cyclopropyl}-1-methyl-1H-benzimidazole]"
4,7.41,"Cc1nc(C2CC2c2nc3ccccc3n2-c2ccccc2)cc(-n2nc(C)nc2C)n1 (centres unmarked) [Cpd 51, 2-(2-(6-(3,5-dimethyl-1H-1,2,4-triazol-1-yl)-2-methylpyrimidin-4-yl)cyclopropyl)-1-phenyl-1H-benzo[d]imidazole]"
5,10.25,"COc1ncc(Cc2nc(C)nn2-c2cc(CCc3ccc4ccccc4n3)nc(C)n2)nc1OC [Cpd 15, 2-(2-(6-(5-((5,6-dimethoxypyrazin-2-yl)methyl)-3-methyl-1H-1,2,4-triazol-1-yl)-2-methylpyrimidin-4-yl)ethyl)quinoline]"
6,11.30,"COc1ccc(Cc2nc(C)nn2-c2cc(C3CC3c3nc4ccccc4[nH]3)nc(C)n2)cc1OC (centres unmarked) [Cpd 38, 2-(2-(6-(5-(3,4-dimethoxybenzyl)-3-methyl-1H-1,2,4-triazol-1-yl)-2-methylpyrimidin-4-yl)cyclopropyl)-1H-benzo[d]imidazole]"
7,8.22,"Cc1nc([C@@H]2C[C@H]2c2nc3ccccc3n2CC2CCCCO2)cc(-n2nc(C)nc2C)n1 (stereo in doubt) [Cpd 70, 2-{2-[6-(3,5-dimethyl-1H-1,2,4-triazol-1-yl)-2-methylpyrimidin-4-yl]cyclopropyl}-1-(tetrahydro-2H-pyran-2-ylmethyl)-1H-benzimidazole]"
8,9.12,"Cc1nc(C)n(-c2cc([C@@H]3C[C@H]3c3nc4ccccc4n3C)nc(N3CC(F)(F)C3)n2)n1 [Cpd 132, 2-((1R,2R)-2-(2-(3,3-difluoroazetidin-1-yl)-6-(3,5-dimethyl-1H-1,2,4-triazol-1-yl)pyrimidin-4-yl)cyclopropyl)-1-methyl-1H-benzo[d]imidazole]"
9,8.51,"Cc1nc(C)n(-c2cc([C@H]3C[C@@H]3c3nc4ccccc4n3C)nc(N3CCN(C)CC3)n2)n1 (relative stereo) [Cpd 121, trans-2-{2-[6-(3,5-dimethyl-1H-1,2,4-triazol-1-yl)-2-(4-methylpiperazin-1-yl)pyrimidin-4-yl]cyclopropyl}-1-methyl-1H-benzimidazole]"
10,8.96,"Cc1nc(C)n(-c2cc([C@H]3C[C@@H]3c3nc4ccccc4n3C)nc(OCC3CC3)n2)n1 (relative stereo) [Cpd 120, trans-2-{2-[2-(cyclopropylmethoxy)-6-(3,5-dimethyl-1H-1,2,4-triazol-1-yl)pyrimidin-4-yl]cyclopropyl}-1-methyl-1H-benzimidazole]"
11,10.14,"COc1ccc(Cc2nc(C)nn2-c2cc(C#Cc3ccc4ccccc4n3)nc(C)n2)nc1OC [Cpd 7, 2-((6-(5-((5,6-dimethoxypyridin-2-yl)methyl)-3-methyl-1H-1,2,4-triazol-1-yl)-2-methylpyrimidin-4-yl)ethynyl)quinoline]"
12,9.20,"COC[C@@H](C)Oc1nc([C@@H]2C[C@H]2c2nc3ccccc3n2C)cc(-n2nc(C)nc2C)n1 [Cpd 66, 2-[(1R,2R)-2-{6-(3,5-dimethyl-1H-1,2,4-triazol-1-yl)-2-[(1R)-2-methoxy-1-methylethoxy]pyrimidin-4-yl}cyclopropyl]-1-methyl-1H-benzimidazole]"
13,7.87,"Cc1nc([C@@H]2C[C@H]2c2nc3ccccc3n2C(C)C)cc(-n2nc(C)nc2C)n1 (stereo in doubt) [Cpd 71, 2-{2-[6-(3,5-dimethyl-1H-1,2,4-triazol-1-yl)-2-methylpyrimidin-4-yl]cyclopropyl}-1-(1-methylethyl)-1H-benzimidazole]"
14,8.72,"Cc1nc(C)n(-c2cc([C@H]3C[C@@H]3c3nc4ccccc4n3C)nc(NC(C)C)n2)n1 (relative stereo) [Cpd 115, trans-4-(3,5-dimethyl-1H-1,2,4-triazol-1-yl)-6-[2-(1-methyl-1H-benzimidazol-2-yl)cyclopropyl]-N-(1-methylethyl)pyrimidin-2-amine]"
15,10.57,"COc1ccc(Cc2nc(C)nn2-c2cc(CCc3ccc4ncccc4n3)nc(C)n2)cc1OC [Cpd 16, 2-(2-(6-(5-(3,4-dimethoxybenzyl)-3-methyl-1H-1,2,4-triazol-1-yl)-2-methylpyrimidin-4-yl)ethyl)-1,5-naphthyridine]"
16,8.89,"COc1nc([C@H]2C[C@@H]2c2nc3ccccc3n2C)cc(-n2nc(C)nc2C)n1 (relative stereo) [Cpd 111, trans-2-{2-[6-(3,5-dimethyl-1H-1,2,4-triazol-1-yl)-2-methoxypyrimidin-4-yl]cyclopropyl}-1-methyl-1H-benzimidazole]"
17,8.00,"Cc1nc([C@@H]2C[C@H]2c2nc3ccccc3n2Cc2cccnc2)cc(-n2nc(C)nc2C)n1 (stereo in doubt) [Cpd 74, 2-{2-[6-(3,5-dimethyl-1H-1,2,4-triazol-1-yl)-2-methylpyrimidin-4-yl]cyclopropyl}-1-(pyridin-3-ylmethyl)-1H-benzimidazole]"
18,10.64,"COc1ccc(Cc2nc(C)nn2-c2cc(C#Cc3ccc4ccccc4n3)nc(C)n2)cc1OC [Cpd 2, 2-((6-(5-(3,4-dimethoxybenzyl)-3-methyl-1H-1,2,4-triazol-1-yl)-2-methylpyrimidin-4-yl)ethynyl)quinoline]"
19,9.43,"Cc1nc(C)n(-c2cc([C@@H]3C[C@H]3c3nc4ccccc4n3C)nc(N3CCC[C@H]3C)n2)n1 [Cpd 133, 2-((1R,2R)-2-(6-(3,5-dimethyl-1H-1,2,4-triazol-1-yl)-2-((R)-2-methylpyrrolidin-1-yl)pyrimidin-4-yl)cyclopropyl)-1-methyl-1H-benzo[d]imidazole]"
20,9.85,"Cc1ccc(CCc2cc(-n3nc(C)nc3C)nc(C)n2)nc1 [Cpd 50, 4-(3,5-dimethyl-1H-1,2,4-triazol-1-yl)-2-methyl-6-(2-(5-methylpyridin-2-yl)ethyl)pyrimidine]"
21,< 7.12,"Cc1nc([C@H]2C[C@@H]2c2nnc(-c3ccn(C)n3)s2)cc(-n2nc(C)nc2C)n1 [Cpd 105, 4-(3,5-dimethyl-1H-1,2,4-triazol-1-yl)-2-methyl-6-{(1S,2S)-2-[5-(1-methyl-1H-pyrazol-3-yl)-1,3,4-thiadiazol-2-yl]cyclopropyl}pyrimidine]"
22,7.06,"COc1ccc(Cc2nc(C)nn2-c2cc(C3CC3c3nnc(C)o3)nc(C)n2)cc1OC (centres unmarked) [Cpd 27, 2-(2-(6-(5-(3,4-dimethoxybenzyl)-3-methyl-1H-1,2,4-triazol-1-yl)-2-methylpyrimidin-4-yl)cyclopropyl)-5-methyl-1,3,4-oxadiazole]"
23,8.77,"Cc1nc(C)n(-c2cc([C@H]3C[C@@H]3c3nc4ccccc4n3C)nc(NC(C)(C)C)n2)n1 (relative stereo) [Cpd 118, trans-N-tert-butyl-4-(3,5-dimethyl-1H-1,2,4-triazol-1-yl)-6-[2-(1-methyl-1H-benzimidazol-2-yl)cyclopropyl]pyrimidin-2-amine]"
